Source: US9649313B2, “Use of ITK inhibitors for the treatment of cancer” (The University of North Carolina at Chapel Hill, priority 2012, dated 2017)

What was measured:
[1] = system: PMWK (ITKLO) melanoma cell line; assay: proliferation assay (cell counts); type: cell-based, Human; conditions: inhibitor as high as 150 nM
Description: (§1) FIG. 4A-4E. Effects of ITK knockdown on proliferation and motility of melanoma cells. FIG. 4A) Western of lysates of VMM 39 containing each of the four shRNA constructs using rabbit monoclonal anti ITK (Y401). FIG. 4B) The four shRNA lentiviral constructs were used to transduce three melanoma cell lines, PMWK (ITKLO), VMM 39 (ITKHI), and RPMI 8322 (ITKHI). 50,000 cells were placed into each well of a 6 well plate, which was then counted 3, 5, and 6, or 7 days after plating to assess the proliferation rates of the different cell lines. FIG. 4C) Single Cell Motility assays were performed on three different melanoma cell lines, PMWK, VMM 39, and RPMI 8322. Each melanoma cell line was transduced with the four shRNA lentiviral constructs producing a total of 12 cell lines. 10,000 cells were plated on fibronectin coated glass bottom dishes. Pictures were taken once every 40 minutes for 16 hours. FIG. 4D) Cell cycle analysis of PMWK, VMM 39, and RPMI 8322 cells that have been transduced with various shRNAs. Cells were harvested after 3 hours of incubation with 5-ethynyl-2′-deoxyuridine (EdU). EdU incorporation and DNA content with FxCycle Violet were analyzed using flow cytometry. Illustrated in this panel are the percentages of cells in G0/G1 (low DNA and EdU content), S (high EdU and low-to-medium DNA content), and G2/M (Low EdU and high DNA content). FIG. 4E) Single-cell motility analysis of PMWK, VMM 39, and RPMI 8322 that have been transduced with various shRNAs. At least 50 cells were tracked for each cell line and the average motility rate was determined. […]
(§2) FIG. 5A-5C. […] Cells were trypsinized and counted using the Invitrogen Countess. […] The cells were counted with the Invitrogen Countess at 3, 5, and 6 or 7 days after plating to assess the proliferation rates of the different cell lines in the presence of BI 10N. […] Following 3 days of BI 10N treatment, the cells were incubated with EdU for 3 hours and were subsequently assessed for 5-ethynyl-2′-deoxyuridine (EdU) incorporation rate and DNA content with FxCycle Violet. […]

[2] = system: RPMI 8322 (ITKHI) melanoma cell line; assay: proliferation assay (cell counts); type: cell-based, Human; conditions: 50 nM
Description: as §1, §2

[3] = system: VMM 39 (ITKHI) melanoma cell line; assay: proliferation assay (cell counts); type: cell-based, Human; conditions: 50 nM
Description: as §1, §2

[4] = system: primary melanoma in the PTEN/BRAF GEMM; assay: PTEN/BRAF GEMM primary melanoma model; type: in vivo, mice
Description: FIG. 7A-7B Effects of BI 10N inhibitor on growth of primary melanoma in the PTEN/BRAF GEMM. A primary melanoma tumor from the PTEN/BRAF mouse GEMM untreated with inhibitors stained with acid fast red for ITK using ITK antibody (Abeam cat#ab32113) (data not shown). A PTEN/BRAF mouse model was used for these in vivo studies. The mice were painted with 4HT (4-hydroxy-tamoxifen) at the base of their tails and within about 4 weeks, 4 mm×4 mm melanomas were typically present in each mouse. The animals were then divided into treatment or no treatment groups. FIG. 7A) Animals were treated as described in panel B, then placed on BI 10N BI 10N at 15 MPK or not treated. Mice were followed for 7 weeks and their tumors were measured once a week to assess tumor volume as described in the Materials and Methods. FIG. 7B) Effect of BI 10N on tumor growth (mean and standard error of mean) in the PTEN/BRAF GEMM. […] The effects of AZD6244 and PLX4032 on tumor growth are also shown. Samples sizes are indicated in parentheses.
All animal studies were approved by UNC-CH Institute for Animal Care and Use Committee prior to study start. PTEN/BRAF mice were bred in house, and tumors were induced with 1 ul of 20 mM Tamoxafen at 4 weeks near the base of the tail as previously described (Dankort et al., 2009 Nat Genet 41(5): 544-52). […]

[5] = system: PD-L expression in the melanoma cells; assay: PD-L expression in melanoma cells; type: cell-based
Description: In addition, we report a correlation between PD-L and ITK protein expression and also found a significant correlation between activated Akt and PD-L protein levels (data not shown). […] These observations are consistent with PI3K regulating PD-L expression, Akt or Erk activation and ITK protein levels (Davies, 2012; Jiang and Liu 2008 Biochim Biophys Acta 1784, 150-158; Parsa et al., 2007 Nat Med 13, 84-88)

## CC(C)C(C)CNCc1ccc2c(c1)[nH]/c(=N\C(=O)c1ccc(C3=CN=NC3)s1)n2CC(C)(C)O (stereo not drawn) [BI 10N]
[1]
  effect on doubling time: did not increase their doubling time
[2]
  increase in doubling time: about 50%
[3]
  increase in doubling time: about 50%
[4]; PTEN/BRAF GEMM, FIG. 7B
  tumor growth compared with AZD6244 and PLX4032: performs better in vivo than MEK inhibitor AZD6244 (selumentinib) and V600E BRAF inhibitor PLX4032 (vemurafenib)
[4]; PTEN/BRAF mice, 15 mg per kg, compared to the no treatment group
  progression of tumors: profoundly retarded the progression of tumors
[5]
  expression of PD-L: did not change
